In patent publication US9980509B2, “Modification of bacterial profile of tobacco” (R.J. REYNOLDS TOBACCO COMPANY, priority 2013, dated 2018):

Tests used:
[1] = test system: enteric bacteria (gram negative bacteria); test: Enteric bacteria counts (violet red bile agar) on field-treated tobacco leaf; format: in vivo; conditions: dark-air cured tobacco treated five hours prior to harvest; based on total bacteria counts before and after treatment
Method: (§1) Dark-air cured tobacco is treated five hours prior to harvest with one or more of a probiotic bacteria solution, and enzyme solution, and/or a 3% sodium chloride salt solution. The solution is applied using a backpack sprayer. Solutions are based on a 100 gallon solution per acre, using recommended plant spacings and dose per plant is provided below.
(§2) The treated tobacco is harvested and mid-stalk leaf samples are analyzed for total bacteria counts, enteric bacteria counts, and Lactobacillus counts. Ten grams of each treated tobacco sample is placed in Butterfields Phosphate Buffer and diluted 10^−2 to 10^−8 times with water. The treated tobacco sample dilutions are applied to plate count agar (PCA) for total aerobic bacteria counts, to violet red bile agar (VRBA) for gram negative bacteria counts, and to MRS for anaerobic (Lactobacillus) counts. The number of bacterial colonies, as visualized under magnification, are counted to estimate the total number of colony-forming units per gram, CFU/g.

total aerobic bacteria = test: Total bacteria counts (plate count agar) on field-treated tobacco leaf; format: in vivo; conditions: dark-air cured tobacco treated five hours prior to harvest; based on total bacteria counts before and after treatment
Method: as §1, §2

Lactobacillus = Lactobacillus (anaerobic) counts on MRS from field-treated tobacco leaf; format: in vivo
Method: as §1, §2

Dark tobacco plants = conditions: for NNN content relative to the level of quantification: potassium chloride-treated samples 1, 2, 3, 5, and 6; for NNN content relative to the level of quantification / NAT content relative to the level of quantification: all potassium sulfate-treated samples; for NAT content relative to the level of quantification: potassium chloride-treated samples 3, 5, and 6
Method: A first, 0.5 acre unplanted plot of soil was treated with a nitrogen-containing fertilizer comprising urea (N—P—K: 46-0-0) at a rate of 150 pounds per acre and a fertilizer incorporating diammonium phosphate and phosphorus (N—P—K: 18-46-0) at a rate of 180 pounds per acre by broadcast application. […] All fertilizer applications were incorporated into the soil after application.
A second, 0.5 acre unplanted plot of soil was treated with a nitrogen-containing fertilizer comprising urea (N—P—K: 46-0-0) at a rate of 150 pounds per acre and a fertilizer incorporating diammonium phosphate and phosphorus (N—P—K: 18-46-0) at a rate of 180 pounds per acre by broadcast application. The following day, a potassium chloride fertilizer (N—P—K: 0-0-60) was broadcast applied at 180 pounds per acre. All fertilizer applications were incorporated into the soil after application.
Dark tobacco plants were independently grown and were transplanted as seedlings (approximately 6-10 inches in length) to both plots (with 2450 plants per fertilized plot) four days after application of the potassium sources to the soil. […] The tobacco plants from both plots were harvested about three months after UAN treatment, and the harvested plants were moved to a traditional 1-acre air-curing barn. The plants were cured in the barn for about a month and a half.
After curing the plants, the leaves were removed from the stalks. The fourth leaf from the upper stalk position of six plants from each plot was taken for analysis. Each of these twelve leaves was prepared by removing the mid-rib stem from the leaf lamina.
The lamina was milled and the content of certain components was evaluated by liquid chromatography-mass spectrometry (LCMS). In particular, the leaves were analyzed in triplicate for TSNA content (namely, NNN, NNK, NAT, and NAB content).

SMILES | enteric bacteria reduction after treatment [1] | total bacteria reduction after treatment (total aerobic bacteria) | Lactobacillus increase after treatment (Lactobacillus; dark-air cured tobacco treated five hours prior to harvest, based on total bacteria counts before and after treatment) | Lactobacillus bacteria change after treatment (Lactobacillus; treated tobacco material, Example 1) | NAT content compared with potassium sulfate treatment (Dark tobacco plants; all cured leaf samples tested) | NNN content compared with potassium sulfate treatment (Dark tobacco plants; all cured leaf samples tested) | average decrease NAT with respect to the potassium sulfate-treated samples (Dark tobacco plants; cured leaf samples) | average decrease NNN with respect to the potassium sulfate-treated samples (Dark tobacco plants; cured leaf samples) | TSNA levels, particularly NNN and NNK, compared with leaves from potassium sulfate-treated soil (Dark tobacco plants; cured leaves) | NNN content relative to the level of quantification (Dark tobacco plants) | NAT content relative to the level of quantification (Dark tobacco plants)
[Cl-].[Na+] [3% NaCl solution, sodium chloride] | 76% | 94% | greater than 400% | significant increase | – | – | – | – | – | – | –
[Cl-].[K+] [Potassium Chloride, potassium chloride] | – | – | – | – | significant decreases | significant decreases | about 77% | about 69% | significantly lower | below the level of quantification | below the level of quantification
O=S(=O)([O-])[O-].[K+].[K+] [Potassium Sulfate, potassium sulfate, reference compound] | – | – | – | – | – | – | – | – | – | well above such levels | well above such levels
